Patent publication US12410237B2, “Methods for purifying proteins having a tubulin carboxypeptidase activity and peptidic based inhibitors thereof” (CENTRE NATIONAL DE LA RECHERCHE SCIENTIFIQUE, priority 2017, dated 2025)
Entries after “also recorded” stand apart in the source; their conditions may differ.

Key:
[1] = test system: native TCPase activity in brain MAPs; test: detyrosination assay with 3H-tyrosine labelled microtubules and isolated brain MAPs; type: biochemical, pig; details: for inhibition of native TCPase activity in brain MAPs (in words): protease inhibitor treatment of brain MAPs, FIG. 5; for inhibition of TCP activity in the MAPs fraction by peptides (in words): brain-derived MAPs, FIG. 11A
Protocol: An assay involving radioactively labelled tyrosine (^3H—Y) was used to quantitatively determine the TCPase activity. Brain tubulin was isolated and purified and radioactively labelled with *Y by recombinant TTL. To do so, recombinant bacterially expressed purified TTL (>90% purity) was put in contact with micrograms of pig brain purified tubulin. The reaction sample was incubated for one hour at 37° C. in presence of radioactively labelled ^3H—Y and ATP. Following incorporation of ^3H—Y to tubulin, a polymerization cycle was performed by adding GTP and incubating for 30 min at 37° C. Next the samples are centrifuged and the obtained pellet was washed twice with PEM buffer. The resulting radioactively labelled MTs were store at −80° C. until further testing. […] After obtaining both purified recombinant TCPase candidate and radioactively labelled MTs, the proteins were put into contact and various amounts of TCPase were presented to MTs. Removal of the radioactive tyrosine by the candidate detyrosinase was measured by quantification of radioactivity in both the soluble and insoluble fraction of the reaction using a liquid scintillator counter.
To further gain insights in the potential protease that could embody the TCPase activity, the isolated MAPs from crude brain extracts were exposed to a selection of specific Cysteine, Aspartic, Metallo and Serine proteinase inhibitors were tested on the extract.
Recombinant bacterially expressed purified TTL (>90% purity) was put in contact with micrograms of pig brain purified tubulin. The reaction sample was incubated for one hour at 37° C. in presence of radioactively labeled ^3H—Y and ATP. Following incorporation of ^3H—Y to tubulin, a polymerization cycle was performed by adding GTP and incubating for 30 min at 37° C. Next, the samples were centrifuged and the obtained pellet was washed twice with PEM buffer. The resulting radioactively labeled MTs were store at −80° C. until further testing. The isolated MAPs from crude brain extracts (as obtained in example 1) were contacted to the radioactively labeled MTs in absence or presence of different peptidic inhibitors or an increasing concentration of peptidic inhibitor. Release of radioactive tyrosine by native TCPase containing brain MAPs was measured by quantification of radioactivity in both the soluble and insoluble fraction of the reaction using a liquid scintillator counter.

[2] = test system: C2C12 cells; test: C2C12 myogenic differentiation, immunoblot of tubulin detyrosination and acetylation; type: cell-based, mouse; details: C2C12 myogenic differentiation time-course, FIG. 12
Protocol: C2C12 cells is an immortal cell line of mouse skeletal myoblasts originally derived from satellite cells from the thigh muscle cells. C2C12 cells were routinely grown at 37° C. in a CO2 incubator. Myogenic differentiation is initiated upon reaching confluence by switching the cells to medium containing 2% horse serum. Cells were collected at start of the myogenic differentiation and every two days over a period of 6 days for molecular analysis.
To further study the use of a TCPase inhibitor, C2C12 cells were treated with or without EEY peptide (FIG. 12). The protein expression of Myosin was monitored by western blotting as control for muscle differentiation. Vinculin acts as loading control. Acetylation and detyrosination of the microtubules was assessed. Whereas acetylation increases during differentiation (Ac-Tubulin) no difference in the status could be observed in the treated cells.

CC(C)C[C@H](NC(=O)[C@H]1O[C@@H]1C(=O)O)C(=O)NCCCCN=C(N)N [E64, reference compound]
inhibition of native TCPase activity in brain MAPs (in words) [1]: complete inhibition

NC(=O)CI [Iodoacetamide, reference compound]
inhibition of native TCPase activity in brain MAPs (in words) [1]: complete inhibition

EDY: three amino acid peptide EDY inspired by the C-terminal sequence of tubulin
inhibition of TCP activity in the MAPs fraction by peptides (in words) [1]: partially blocked

EEY: tripeptide EEY inspired by the C-terminal sequence of alpha-tubulin, TCP inhibitor
inhibition of TCP activity in the MAPs fraction by peptides (in words) [1]: almost fully inhibited
acetylation of the microtubules (Ac-Tubulin) [2]: no difference
tubulin detyrosination levels (Δ1-tubulin) [2]: clearly inhibited detyrosination; also recorded: decrease
